{"source": "paper PMC4765731", "about": "(Anticancer research, 2015)", "key": {"[1]": {"system": "human lung (A549) cancer cell line", "assay": "Cell viability, crystal violet dye binding assay, A549", "assay_type": "cell-based"}, "[2]": {"system": "A549 cells", "assay": "Mitochondrial membrane potential", "assay_type": "cell-based, human", "conditions": "rhodamine-123"}, "[3]": {"system": "A549 cells", "assay": "ROS production, DCFDA dye", "assay_type": "cell-based, human", "conditions": "30 min"}, "[4]": {"conditions": "Homo sapiens, A549, 48 h, read-out: CC50 (cytotoxic concentration), A549, A549, 48 h exposure, crystal violet, mean ± SD"}, "[5]": {"conditions": "read-out: CC50 (cytotoxic concentration), A549, A549, 48 h exposure, crystal violet, mean ± SD"}}, "note": "Where two headings read alike, the source gives them in different places."}
{"molecule": "CC(=O)Oc1ccc(-c2cc3ccc(OC(C)=O)c(OC(C)=O)c3oc2=O)cc1", "note": "[Compound 6, 8-(acetyloxy)-3-[4-(acetyloxy)phenyl]-2-oxo-2H-chromen-7-yl acetate]", "values": [{"measurement": "CC50", "setting": "[1]; [4]", "result": 75.2, "unit": "µM"}, {"measurement": "CC50", "setting": "[1]; [5]", "result": "75.9 ± 0.65", "unit": "µM"}]}
{"molecule": "CC(=O)Oc1ccc2cc(-c3ccc(S(C)(=O)=O)cc3)c(=O)oc2c1OC(C)=O", "note": "[Compound 7, 8-(acetyloxy)-3-(4-methanesulfonylphenyl)-2-oxo-2H-chromen-7-yl acetate]", "values": [{"measurement": "MMP fluorescence intensity in comparison to untreated control (100%)", "setting": "[2]; A549, 10 μM", "result": 96.4, "unit": "%"}, {"measurement": "MMP fluorescence intensity in comparison to untreated control (100%)", "setting": "[2]; A549, 25 μM", "result": 94.8, "unit": "%"}, {"measurement": "MMP fluorescence intensity in comparison to untreated control (100%)", "setting": "[2]; A549, 50 μM", "result": 93.4, "unit": "%"}, {"measurement": "MMP fluorescence intensity in comparison to untreated control (100%)", "setting": "[2]; A549, 75 μM", "result": 92.9, "unit": "%"}, {"measurement": "MMP fluorescence intensity in comparison to untreated control (100%)", "setting": "[2]; A549, 100 μM", "result": 81.7, "unit": "%"}, {"measurement": "ROS fluorescence intensity in comparison to untreated control (100%)", "setting": "[3]; A549, 10 μM", "result": 107.1, "unit": "%"}, {"measurement": "ROS fluorescence intensity in comparison to untreated control (100%)", "setting": "[3]; A549, 25 μM", "result": 129.0, "unit": "%"}, {"measurement": "ROS fluorescence intensity in comparison to untreated control (100%)", "setting": "[3]; A549, 50 μM", "result": 136.6, "unit": "%"}, {"measurement": "ROS fluorescence intensity in comparison to untreated control (100%)", "setting": "[3]; A549, 75 μM", "result": 146.0, "unit": "%"}, {"measurement": "ROS fluorescence intensity in comparison to untreated control (100%)", "setting": "[3]; A549, 100 μM", "result": 231.2, "unit": "%"}, {"measurement": "fold decrease in potency compared to docetaxel (CC50, A549)", "setting": "[1]; A549, 48 h, 7 vs docetaxel", "result": 2.5, "unit": "fold"}, {"measurement": "CC50", "setting": "[1]; [5]", "result": "24.2 ± 0.7", "unit": "µM"}]}
{"molecule": "CS(=O)(=O)c1ccc(-c2cc3ccccc3oc2=O)cc1", "note": "[Compound 9, 3-(4-methanesulfonylphenyl)-2H-chromen-2-one]", "values": [{"measurement": "CC50", "setting": "[1]; [4]", "result": "> 100", "unit": "µM"}]}
{"molecule": "CC(=O)Oc1ccc(-c2c(C)c3ccccc3oc2=O)cc1", "note": "[Compound 10, 4-(4-methyl-2-oxo-2H-chromen-3-yl)phenyl acetate]", "values": [{"measurement": "CC50", "setting": "[1]; [4]", "result": "> 100", "unit": "µM"}]}
{"molecule": "Cc1c(-c2ccc(S(C)(=O)=O)cc2)c(=O)oc2ccccc12", "note": "[Compound 11, 3-(4-methanesulfonylphenyl)-4-methyl-2H-chromen-2-one]", "values": [{"measurement": "CC50", "setting": "[1]; [4]", "result": "> 100", "unit": "µM"}]}
{"molecule": "CC(=O)O[C@@]12CO[C@@H]1C[C@H](O)[C@@]1(C)C(=O)[C@H](O)C3=C(C)[C@@H](OC(=O)[C@H](O)[C@@H](NC(=O)OC(C)(C)C)c4ccccc4)C[C@@](O)([C@@H](OC(=O)c4ccccc4)[C@H]21)C3(C)C", "note": "[Docetaxel, reference compound]", "values": [{"measurement": "CC50", "setting": "[1]; [4]", "result": 9.47, "unit": "µM"}, {"measurement": "CC50", "setting": "[1]; [5]", "result": "9.4 ± 0.07", "unit": "µM"}]}
